From patent publication US20250163038A1, “CBL-B MODULATORS AND USES THEREOF” (Nimbus Clio, Inc., priority 2021, published 2025) come the findings set out here.

Test [1] has as its target Recombinant human Cbl-b (aa 36-427) (Homo sapiens, UniProt Q13191). Kind of test: Cbl-b Biochemical Assay (TR-FRET). The note with it: read-out: TR-FRET hCbl-b IC50. Background: Time-resolved FRET reads energy transfer from a long-lived donor to a nearby acceptor.
For test [2], the system named is Jurkat (clone E6-1) cells with NFAT luciferase reporter. Kind of test: Jurkat reporter assay (NFAT Luciferase). It is filed as cell-based. The note with it: Homo sapiens; Jurkat NFAT luciferase reporter cells, anti-CD3 stimulation, 6 hr; read-out: Jurkat NFAT EC50. On the technique in general: In a reporter assay the amount or activity of a reporter protein is the signal.

The target in test [3] is T1, Recombinant human c-Cbl (aa 47-435) (Homo sapiens, UniProt P22681).
T1 sequence (P22681 47-435): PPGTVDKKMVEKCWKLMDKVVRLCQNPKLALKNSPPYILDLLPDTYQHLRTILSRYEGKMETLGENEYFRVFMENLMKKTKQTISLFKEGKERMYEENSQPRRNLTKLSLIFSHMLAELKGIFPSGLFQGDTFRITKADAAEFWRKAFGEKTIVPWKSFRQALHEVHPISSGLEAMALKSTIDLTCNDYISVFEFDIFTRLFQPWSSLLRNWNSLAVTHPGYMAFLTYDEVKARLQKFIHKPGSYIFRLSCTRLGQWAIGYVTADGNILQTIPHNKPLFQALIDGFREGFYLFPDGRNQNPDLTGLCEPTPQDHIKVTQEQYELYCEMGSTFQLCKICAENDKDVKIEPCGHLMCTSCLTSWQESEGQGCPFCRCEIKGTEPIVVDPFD
Kind of test: c-Cbl Biochemical Assay (TR-FRET). The note with it: hc-Cbl Biochemical Assay (TR-FRET); read-out: TR-FRET hcCbl IC50.

Recombinant human Cbl-b (aa 36-427), sequence (Q13191 36-427): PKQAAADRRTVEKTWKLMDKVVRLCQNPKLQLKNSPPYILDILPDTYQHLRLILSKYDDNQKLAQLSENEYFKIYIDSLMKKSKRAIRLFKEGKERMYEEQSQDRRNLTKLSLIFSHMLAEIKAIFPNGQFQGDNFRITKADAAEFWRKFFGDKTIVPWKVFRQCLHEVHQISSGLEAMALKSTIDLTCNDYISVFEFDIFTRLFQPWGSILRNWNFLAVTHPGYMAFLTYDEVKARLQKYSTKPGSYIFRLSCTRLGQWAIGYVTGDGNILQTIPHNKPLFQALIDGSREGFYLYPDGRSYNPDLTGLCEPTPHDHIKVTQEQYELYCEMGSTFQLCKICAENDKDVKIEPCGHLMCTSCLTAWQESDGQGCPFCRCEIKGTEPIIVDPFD

In the case of `COCCNCc1ccc2oc(-c3cc(-c4ccc(C#N)cc4-c4nncn4C)cc(C4CC4)n3)nc2c1` [AEN-15, 4-[2-Cyclopropyl-6-(5-{1[(2-methoxyethyl)amino]methyl}-1,3-benzoxazol-2-yl)pyridin-4-yl]-3-(4-methyl-1,2,4-triazol-3-yl)benzonitrile], the 50% inhibitory concentration (IC50) (usually the concentration that inhibits the measured activity by half) was below 0.2 µM in test [1] and 0.2 to 1 µM in test [3]. In test [2], the EC50 (as a rule, the concentration that produces a half-maximal response) was 0.2 to 1 µM.

Regarding `CCOCCNCc1cc(OC)c2oc(-c3cccc(-c4ccc(F)cc4-c4nncn4C)c3)nc2c1` [GD-1, 2-Ethoxy-N-((2-(4′-fluoro-2′-(4-methyl-4H-1,2,4-triazol-3-yl)-[1,1′-biphenyl]-3-yl)-7-methoxybenzo[d]oxazol-5-yl)methyl)ethan-1-amine], the IC50 in test [1] was below 0.2 µM; in test [3], 0.2 to 1 µM. Also, the EC50 in test [2] lay within 0.2 to 1 µM.

Regarding `Cn1cnnc1-c1cc(F)ccc1-c1cccc(-c2nc3cc(CNCCF)cc(C(F)(F)F)c3o2)c1` [FD-2, 2-fluoro-N-((2-(4′-fluoro-2′-(4-methyl-4H-1,2,4-triazol-3-yl)-[1,1′-biphenyl]-3-yl)-7-(trifluoromethyl)benzo[d]oxazol-5-yl)methyl)ethan-1-amine], the concentration for half-maximal inhibition (IC50) in test [1] and in test [3] was below 0.2 µM throughout. The concentration for a half-maximal effect (EC50) in test [2] lay within 0.2 to 1 µM.

As for `COCCNCc1cc(C)c2oc(-c3cccc(-c4ccc(F)cc4-c4nncn4C)c3)nc2c1` [GV-1, N-((2-(4′-Fluoro-2′-(4-methyl-4H-1,2,4-triazol-3-yl)-[1,1′-biphenyl]-3-yl)-7-methylbenzo[d]oxazol-5-yl)methyl)-2-methoxyethan-1-amine], the half-inhibitory concentration (IC50) in test [1] is below 0.2 µM; in test [3], 0.2 to 1 µM. Further, the EC50 in test [2] was 0.2 to 1 µM.

`Cn1cnnc1-c1cc(F)ccc1-c1cccc(-c2nc3cc(CN[C@H]4CC[C@@H]4O)cc(C(F)(F)F)c3o2)c1` (racemic) [ADF-2, (1R,2R)-2-[({2-[4′-Fluoro-2′-(4-methyl-1,2,4-triazol-3-yl)-[1,1′-biphenyl]-3-yl]-7-(trifluoromethyl)-1,3-benzoxazol-5-yl}methyl)amino]cyclobutan-1-ol]: the IC50 in test [1] and in test [3] was below 0.2 µM each time. Besides, the EC50 in test [2] is below 0.2 µM.

Take `C[C@H](O)CNCc1cc(C(F)(F)F)c2oc(-c3cccc(-c4ccc(F)cc4-c4nncn4C)c3)nc2c1` [AM-2, (S)-1-(((2-(4′-Fluoro-2′-(4-methyl-4H-1,2,4-triazol-3-yl)-[1,1′-biphenyl]-3-yl)-7-(trifluoromethyl)benzo[d]oxazol-5-yl)methyl)amino)propan-2-ol]: the figures for the IC50 in test [1] and in test [3] were below 0.2 µM and 1 to 10 µM, respectively. In addition, in test [2], the concentration for a half-maximal effect (EC50) was in the range of 0.2 to 1 µM.

Regarding `Cn1cnnc1-c1cc(F)ccc1-c1cccc(-c2nc3cc(CNCC4(C#N)CCOCC4)cc(C(F)(F)F)c3[nH]2)c1` [CT-2, 4-((((2-(4′-Fluoro-2′-(4-methyl-4H-1,2,4-triazol-3-yl)-[1,1′-biphenyl]-3-yl)-7-(trifluoromethyl)-1H-benzo[d]imidazol-5-yl)methyl)amino)methyl)tetrahydro-2H-pyran-4-carbonitrile], the half-maximal inhibitory concentration (IC50) in test [1] is below 0.2 µM; in test [3], 0.2 to 1 µM. For the same compound, the EC50 in test [2] was 0.2 to 1 µM.

As to `C[C@@H](c1cc(C(F)(F)F)c2[nH]c(-c3cccc(C4(Cc5nncn5C)COC4)c3)nc2c1)N1CCC2(CC2)C1` [ACM-1, (S)-5-(1-(5-Azaspiro[2.4]heptan-5-yl)ethyl)-2-(3-(3-((4-methyl-4H-1,2,4-triazol-3-yl)methyl)oxetan-3-yl)phenyl)-7-(trifluoromethyl)-1H-benzo[d]imidazole], the concentration for half-maximal inhibition (IC50) in test [1] is 0.2 to 1 µM; in test [3], 10 to 50 µM. Also, the EC50 in test [2] is 1 to 10 µM.

With `CO[C@H](C)CNCc1cc(F)c2oc(-c3cc(-c4ccc(F)cc4-c4nncn4C)cc(C4CC4)n3)nc2c1` [AFN-2, [(2-{6-Cyclopropyl-4-[4-fluoro-2-(4-methyl-1,2,4-triazol-3-yl)phenyl]pyridin-2-yl}-7-fluoro-1,3-benzoxazol-5-yl)methyl][(2R)-2-methoxypropyl]amine], the IC50 in test [1] and in test [3] was below 0.2 µM throughout. Further, the 50% effective concentration (EC50) in test [2] fell in the range of 0.2 to 1 µM.

Consider `Cn1cnnc1-c1cc(F)ccc1-c1cccc(-c2nc3cc(CN4CCC5(CC4)CC5)cc(C(F)(F)F)c3o2)c1` [AG-2, 5-((6-Azaspiro[2.5]octan-6-yl)methyl)-2-(4′-fluoro-2′-(4-methyl-4H-1,2,4-triazol-3-yl)-[1,1′-biphenyl]-3-yl)-7-(trifluoromethyl)benzo[d]oxazole], for which the values for the IC50 in test [1] and in test [3] were below 0.2 µM and 1 to 10 µM, respectively. The EC50 in test [2] lay within 1 to 10 µM.

As for `Cn1cnnc1-c1cc(C#N)ccc1-c1cccc(-c2nc3cc(CN[C@@H]4CCC[C@@H]4O)cc(C(F)(F)F)c3[nH]2)c1` [AAW-5, 3′-(5-((((1R,2S)-2-Hydroxycyclopentyl)amino)methyl)-7-(trifluoromethyl)-1H-benzo[d]imidazol-2-yl)-2-(4-methyl-4H-1,2,4-triazol-3-yl)-[1,1′-biphenyl]-4-carbonitrile], the IC50 in test [1] is below 0.2 µM; in test [3], 1 to 10 µM. Further, the concentration giving a half-maximal response (EC50) in test [2] was in the range of 0.2 to 1 µM.

Regarding `CN(Cc1cc(F)c2oc(-c3cc(-c4ccc(F)cc4-c4nncn4C)cc(C4CC4)n3)nc2c1)[C@@H]1CCC[C@@H]1O` [AFK-1, (1S,2R)-2-{[(2-{6-Cyclopropyl-4-[4-fluoro-2-(4-methyl-1,2,4-triazol-3-yl)phenyl]pyridin-2-yl}-7-fluoro-1,3-benzoxazol-5-yl)methyl](methyl)amino}cyclopentan-1-ol], the half-maximal inhibitory concentration (IC50) in test [1] and in test [3] was below 0.2 µM in each case. The concentration for a half-maximal effect (EC50) in test [2] is 0.2 to 1 µM.

For `COC[C@H](C)NCc1cc(C(F)(F)F)c2oc(-c3cccc(-c4ccc(F)cc4-c4nncn4C)c3)nc2c1` [EJ-2, (S)—N-((2-(4′-Fluoro-2′-(4-methyl-4H-1,2,4-triazol-3-yl)-[1,1′-biphenyl]-3-yl)-7-(trifluoromethyl)benzo[d]oxazol-5-yl)methyl)-1-methoxypropan-2-amine], the IC50 in test [1] and in test [3] was below 0.2 µM each time. Further, the concentration for a half-maximal effect (EC50) in test [2] was below 0.2 µM.

Take `CN(Cc1cc(C(F)(F)F)c2oc(-c3cccc(-c4ccc(F)cc4-c4nncn4C)c3)nc2c1)CC1CCC1` [IE-1, 1-Cyclobutyl-N-((2-(4′-fluoro-2′-(4-methyl-4H-1,2,4-triazol-3-yl)-[1,1′-biphenyl]-3-yl)-7-(trifluoromethyl)benzo[d]oxazol-5-yl)methyl)-N-methylmethanamine]: the concentration for half-maximal inhibition (IC50) in test [1] was below 0.2 µM; in test [3] it was 0.2 to 1 µM. The EC50 in test [2] lay within 0.2 to 1 µM.

With `Cn1cnnc1-c1cc(F)ccc1-c1cc(-c2nc3cc(CNCC4CCC4)cc(F)c3o2)cc(C2CC2)c1` [JO-1, 1-Cyclobutyl-N-((2-(5-cyclopropyl-4′-fluoro-2′-(4-methyl-4H-1,2,4-triazol-3-yl)-[1,1′-biphenyl]-3-yl)-7-fluorobenzo[d]oxazol-5-yl)methyl)methanamine], the IC50 in test [1] and in test [3] was below 0.2 µM in each case. The concentration giving a half-maximal response (EC50) in test [2] was below 0.2 µM.

For the compound `Cn1cnnc1-c1cc(F)ccc1-c1cccc(-c2nc3cc(CNC4CCC4)cc(C(F)(F)F)c3o2)c1` [GC-2, N-((2-(4′-Fluoro-2′-(4-methyl-4H-1,2,4-triazol-3-yl)-[1,1′-biphenyl]-3-yl)-7-(trifluoromethyl)benzo[d]oxazol-5-yl)methyl)cyclobutanamine], the IC50 in test [1] and in test [3] was below 0.2 µM each time. Further, the EC50 in test [2] was below 0.2 µM.

As to `Cn1cnnc1-c1cc(F)ccc1-c1cc(-c2nc3cc(CN[C@@H]4CCC[C@@H]4O)cc(C(F)(F)F)c3o2)cc(C2CC2)c1` [ACZ-8, (1S,2R)-2-[({2-[5-Cyclopropyl-4′-fluoro-2′-(4-methyl-1,2,4-triazol-3-yl)-[1,1′-biphenyl]-3-yl]-7-(trifluoromethyl)-1,3-benzoxazol-5-yl}methyl)amino]cyclopentan-1-ol], the IC50 in test [1] and in test [3] was below 0.2 µM throughout. Moreover, the EC50 in test [2] was below 0.2 µM.

For `Cn1cnnc1-c1cc(F)ccc1-c1cccc(-c2nc3cc(CN[C@@H]4CCC[C@@H]4O)cc(F)c3o2)c1` [ED-7, (1S,2R)-2-(((7-Fluoro-2-(4′-fluoro-2′-(4-methyl-4H-1,2,4-triazol-3-yl)-[1,1′-biphenyl]-3-yl)benzo[d]oxazol-5-yl)methyl)amino)cyclopentan-1-ol], the IC50 in test [1] and in test [3] was below 0.2 µM throughout. Also, the concentration giving a half-maximal response (EC50) in test [2] was below 0.2 µM.

Turning to `COC[C@H](C)NCc1cc(C)c2oc(-c3cc(-c4ccc(F)cc4-c4nncn4C)cc(C4CC4)n3)nc2c1` [AGK-1, [(2-{6-Cyclopropyl-4-[4-fluoro-2-(4-methyl-1,2,4-triazol-3-yl)phenyl]pyridin-2-yl}-7-methyl-1,3-benzoxazol-5-yl)methyl][(2S)-1-methoxypropan-2-yl]amine], the concentration for half-maximal inhibition (IC50) in test [1] and in test [3] was below 0.2 µM throughout. The EC50 in test [2] was below 0.2 µM.

`Cn1cnnc1-c1cc(F)ccc1-c1cccc(-c2nc3cc(CN[C@@H]4CCC[C@@H]4F)cc(C(F)(F)F)c3o2)c1` [CW-5, (1R,2S)-2-Fluoro-N-((2-(4′-fluoro-2′-(4-methyl-4H-1,2,4-triazol-3-yl)-[1,1′-biphenyl]-3-yl)-7-(trifluoromethyl)benzo[d]oxazol-5-yl)methyl)cyclopentan-1-amine]: the IC50 in test [1] and in test [3] was below 0.2 µM in each case. Further, in test [2], the EC50 is below 0.2 µM.
